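Five concentrations, 48 hours, 96-well plates. At the TGI there is no net growth.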
Tests used:
Assay in all cases: NCI anticancer screen, dose series, 48 h
[1] = tested on: CAKI-1 renal
[2] = tested on: U251 CNS
[3] = tested on: MOLT-4 leukemia
[4] = tested on: SNB-75 CNS
[5] = tested on: A549 NSCLC
[6] = tested on: M19-MEL melanoma
[7] = tested on: NCI-H460 lung
[8] = tested on: HOP-18 NSCLC
[9] = tested on: XF 498 CNS
[10] = tested on: RXF-631 renal
[11] = tested on: M14 melanoma
[12] = tested on: SF-268 CNS
[13] = tested on: A498 renal
[14] = tested on: EKVX NSCLC
[15] = tested on: SK-MEL-2 melanoma
[16] = tested on: OVCAR-8 ovarian
[17] = tested on: UO-31 renal
[18] = tested on: HCC-2998 colon
[19] = tested on: ACHN renal
[20] = tested on: UACC-62 melanoma
[21] = tested on: LOX IMVI melanoma
[22] = tested on: SK-MEL-28 melanoma
[23] = tested on: OVCAR-5 ovarian
[24] = tested on: SW-620 colon
[25] = tested on: SNB-78 CNS
[26] = tested on: HT29 colon
[27] = tested on: NCI-H226 lung
[28] = tested on: KM12 colon
[29] = tested on: SNB-19 CNS
[30] = tested on: DMS 273 small cell lung
[31] = tested on: OVCAR-4 ovarian
[32] = tested on: HOP-62 NSCLC
[33] = tested on: SN12C renal
[34] = tested on: SR leukemia
[35] = tested on: LXFL 529 NSCLC
[36] = tested on: DLD-1 colon
[37] = tested on: NCI-H23 lung
[38] = tested on: HL-60(TB) leukemia
[39] = tested on: RXF 393 renal
[40] = tested on: HCT-116 colon
[41] = tested on: TK-10 renal
[42] = tested on: IGROV1 ovarian
[43] = tested on: K-562 leukemia
[44] = tested on: UACC-257 melanoma
[45] = tested on: CCRF-CEM leukemia
[46] = tested on: MALME-3M melanoma
[47] = tested on: NCI-H522 lung
[48] = tested on: 786-0 renal
[49] = tested on: SF-295 CNS
[50] = tested on: COLO 205 colon
[51] = tested on: SK-MEL-5 melanoma
[52] = tested on: SK-OV-3 ovarian
[53] = tested on: OVCAR-3 ovarian
[54] = tested on: KM20L2 colon
[55] = tested on: RPMI-8226 leukemia
[56] = tested on: HCT-15 colon
[57] = tested on: SF-539 CNS
[58] = tested on: HOP-92 NSCLC
[59] = tested on: DMS 114 small cell lung

## CCOc1ccc(NC(=O)CC#N)cc1
[1]
  TGI: > 100 µM
[2]
  TGI: > 100 µM
[3]
  TGI: > 100 µM
[4]
  TGI: > 100 µM
[5]
  TGI: > 100 µM
[6]
  TGI: > 100 µM
[7]
  TGI: > 100 µM
[8]
  TGI: > 100 µM
[9]
  TGI: > 100 µM
[10]
  TGI: > 100 µM
[11]
  TGI: > 100 µM
[12]
  TGI: > 100 µM
[13]
  TGI: > 100 µM
[14]
  TGI: > 100 µM
[15]
  TGI: > 100 µM
[16]
  TGI: > 100 µM
[17]
  TGI: > 100 µM
[18]
  TGI: > 100 µM
[19]
  TGI: > 100 µM
[20]
  TGI: > 100 µM
[21]
  TGI: > 100 µM
[22]
  TGI: > 100 µM
[23]
  TGI: > 100 µM
[24]
  TGI: > 100 µM
[25]
  TGI: > 100 µM
[26]
  TGI: > 100 µM
[27]
  TGI: > 100 µM
[28]
  TGI: > 100 µM
[29]
  TGI: > 100 µM
[30]
  TGI: > 100 µM
[31]
  TGI: > 100 µM
[32]
  TGI: > 100 µM
[33]
  TGI: > 100 µM
[34]
  TGI: > 100 µM
[35]
  TGI: > 100 µM
[36]
  TGI: > 100 µM
[37]
  TGI: > 100 µM
[38]
  TGI: > 100 µM
[39]
  TGI: > 100 µM
[40]
  TGI: > 100 µM
[41]
  TGI: > 100 µM
[42]
  TGI: > 100 µM
[43]
  TGI: > 100 µM
[44]
  TGI: > 100 µM
[45]
  TGI: > 100 µM
[46]
  TGI: > 100 µM
[47]
  TGI: > 100 µM
[48]
  TGI: > 100 µM
[49]
  TGI: > 100 µM
[50]
  TGI: > 100 µM
[51]
  TGI: > 100 µM
[52]
  TGI: > 100 µM
[53]
  TGI: > 100 µM
[54]
  TGI: > 100 µM

## C/C(Cc1ccccc1)=N\NC(N)=S
[2]
  TGI: > 100 µM
[3]
  TGI: > 100 µM
[4]
  TGI: > 100 µM
[55]
  TGI: > 100 µM
[6]
  TGI: > 100 µM
[7]
  TGI: > 100 µM
[8]
  TGI: > 100 µM
[9]
  TGI: > 100 µM
[10]
  TGI: > 100 µM
[11]
  TGI: > 100 µM
[13]
  TGI: > 100 µM
[19]
  TGI: > 100 µM
[20]
  TGI: > 100 µM
[21]
  TGI: > 100 µM
[22]
  TGI: > 100 µM
[25]
  TGI: > 100 µM
[29]
  TGI: > 100 µM
[30]
  TGI: > 100 µM
[31]
  TGI: > 100 µM
[33]
  TGI: > 100 µM
[35]
  TGI: > 100 µM
[37]
  TGI: > 100 µM
[38]
  TGI: > 100 µM
[56]
  TGI: > 100 µM
[39]
  TGI: > 100 µM
[57]
  TGI: > 100 µM
[58]
  TGI: > 100 µM
[42]
  TGI: > 100 µM
[43]
  TGI: > 100 µM
[59]
  TGI: > 100 µM
[45]
  TGI: > 100 µM
[50]
  TGI: > 100 µM
[52]
  TGI: > 100 µM
[54]
  TGI: > 100 µM

## CC12CP(=O)(c3ccccc3)CC1C2(Cl)Cl (configuration not stated)
[2]
  TGI: > 100 µM
[3]
  TGI: > 100 µM
[4]
  TGI: > 100 µM
[55]
  TGI: > 100 µM
[5]
  TGI: > 100 µM
[6]
  TGI: > 100 µM
[7]
  TGI: > 100 µM
[8]
  TGI: > 100 µM
[9]
  TGI: > 100 µM
[11]
  TGI: > 100 µM
[14]
  TGI: > 100 µM
[16]
  TGI: > 100 µM
[18]
  TGI: > 100 µM
[20]
  TGI: > 100 µM
[21]
  TGI: > 100 µM
[22]
  TGI: > 100 µM
[24]
  TGI: > 100 µM
[25]
  TGI: > 100 µM
[26]
  TGI: > 100 µM
[28]
  TGI: > 100 µM
[29]
  TGI: > 100 µM
[30]
  TGI: > 100 µM
[31]
  TGI: > 100 µM
[32]
  TGI: > 100 µM
[33]
  TGI: > 100 µM
[35]
  TGI: > 100 µM
[36]
  TGI: > 100 µM
[37]
  TGI: > 100 µM
[39]
  TGI: > 100 µM
[57]
  TGI: > 100 µM
[40]
  TGI: > 100 µM
[41]
  TGI: > 100 µM
[42]
  TGI: > 100 µM
[43]
  TGI: > 100 µM
[59]
  TGI: > 100 µM
[45]
  TGI: > 100 µM
[47]
  TGI: > 100 µM
[48]
  TGI: > 100 µM
[49]
  TGI: > 100 µM
[50]
  TGI: > 100 µM
[51]
  TGI: > 100 µM
[52]
  TGI: > 100 µM
[53]
  TGI: > 100 µM
[54]
  TGI: > 100 µM

## O=C1/C(=C/c2ccc(Cl)cc2)CCC1CCN1CCOCC1 (configuration not stated)
[1]
  TGI: > 100 µM
[3]
  TGI: 82.6 µM
[4]
  TGI: > 100 µM
[55]
  TGI: 64.4 µM
[5]
  TGI: > 100 µM
[6]
  TGI: > 100 µM
[7]
  TGI: > 100 µM
[8]
  TGI: > 100 µM
[9]
  TGI: > 100 µM
[10]
  TGI: > 100 µM
[11]
  TGI: > 100 µM
[12]
  TGI: > 100 µM
[13]
  TGI: > 100 µM
[14]
  TGI: > 100 µM
[15]
  TGI: > 100 µM
[16]
  TGI: > 100 µM
[17]
  TGI: > 100 µM
[18]
  TGI: > 100 µM
[19]
  TGI: > 100 µM
[20]
  TGI: > 100 µM
[21]
  TGI: > 100 µM
[22]
  TGI: > 100 µM
[23]
  TGI: > 100 µM
[24]
  TGI: > 100 µM
[25]
  TGI: > 100 µM
[26]
  TGI: > 100 µM
[27]
  TGI: > 100 µM
[28]
  TGI: > 100 µM
[29]
  TGI: > 100 µM
[30]
  TGI: > 100 µM
[31]
  TGI: > 100 µM
[32]
  TGI: > 100 µM
[33]
  TGI: > 100 µM
[34]
  TGI: > 100 µM
[35]
  TGI: > 100 µM
[36]
  TGI: > 100 µM
[37]
  TGI: > 100 µM
[38]
  TGI: 85.2 µM
[56]
  TGI: > 100 µM
[39]
  TGI: > 100 µM
[57]
  TGI: > 100 µM
[40]
  TGI: > 100 µM
[41]
  TGI: > 100 µM
[58]
  TGI: > 100 µM
[42]
  TGI: > 100 µM
[43]
  TGI: > 100 µM
[59]
  TGI: > 100 µM
[44]
  TGI: > 100 µM
[45]
  TGI: > 100 µM
[46]
  TGI: > 100 µM
[48]
  TGI: > 100 µM
[49]
  TGI: > 100 µM
[51]
  TGI: > 100 µM
[53]
  TGI: > 100 µM
[54]
  TGI: > 100 µM

Source: PubChem BioAssay (NCI)
